Several values for one entry are separate records, joined by “and”; a condition that tells them apart may be missing. Equal entries are not always repeated.
Assays:
clinical [1] = details: human, in vivo
[2] = human, in vivo
clinical [3] = details: human, in vivo; remark: listed apart in the source
Pgp [4] = target: Pgp (Homo sapiens, UniProt P08183); details: PX811019 0.2 mM applied basolaterally
Pgp [5] = assay: Permeability in Caco-2 barrier model; details: human
Method: (§1) Digoxin was used as marker to check for Pgp activity in the cultures. […] Samples were recovered from receptor compartments after 0, 15, 30, 45, 60, and 120 minutes, and further analyzed by liquid scintillation counting. Samples were also recovered a time 0 and 120 minutes from the donor compartments for mass balance evaluation. Each condition was performed in 3 replicated transwell filters in the presence of the Caco-2 barrier.

P-gp = assay: Permeability in Caco-2 barrier model; details: human
Method: as §1

urinary copper excretion = details: in vivo, po
[6] = population mean (% CV in table)

Sequence of Pgp (Homo sapiens, UniProt P08183) (P08183 whole entry): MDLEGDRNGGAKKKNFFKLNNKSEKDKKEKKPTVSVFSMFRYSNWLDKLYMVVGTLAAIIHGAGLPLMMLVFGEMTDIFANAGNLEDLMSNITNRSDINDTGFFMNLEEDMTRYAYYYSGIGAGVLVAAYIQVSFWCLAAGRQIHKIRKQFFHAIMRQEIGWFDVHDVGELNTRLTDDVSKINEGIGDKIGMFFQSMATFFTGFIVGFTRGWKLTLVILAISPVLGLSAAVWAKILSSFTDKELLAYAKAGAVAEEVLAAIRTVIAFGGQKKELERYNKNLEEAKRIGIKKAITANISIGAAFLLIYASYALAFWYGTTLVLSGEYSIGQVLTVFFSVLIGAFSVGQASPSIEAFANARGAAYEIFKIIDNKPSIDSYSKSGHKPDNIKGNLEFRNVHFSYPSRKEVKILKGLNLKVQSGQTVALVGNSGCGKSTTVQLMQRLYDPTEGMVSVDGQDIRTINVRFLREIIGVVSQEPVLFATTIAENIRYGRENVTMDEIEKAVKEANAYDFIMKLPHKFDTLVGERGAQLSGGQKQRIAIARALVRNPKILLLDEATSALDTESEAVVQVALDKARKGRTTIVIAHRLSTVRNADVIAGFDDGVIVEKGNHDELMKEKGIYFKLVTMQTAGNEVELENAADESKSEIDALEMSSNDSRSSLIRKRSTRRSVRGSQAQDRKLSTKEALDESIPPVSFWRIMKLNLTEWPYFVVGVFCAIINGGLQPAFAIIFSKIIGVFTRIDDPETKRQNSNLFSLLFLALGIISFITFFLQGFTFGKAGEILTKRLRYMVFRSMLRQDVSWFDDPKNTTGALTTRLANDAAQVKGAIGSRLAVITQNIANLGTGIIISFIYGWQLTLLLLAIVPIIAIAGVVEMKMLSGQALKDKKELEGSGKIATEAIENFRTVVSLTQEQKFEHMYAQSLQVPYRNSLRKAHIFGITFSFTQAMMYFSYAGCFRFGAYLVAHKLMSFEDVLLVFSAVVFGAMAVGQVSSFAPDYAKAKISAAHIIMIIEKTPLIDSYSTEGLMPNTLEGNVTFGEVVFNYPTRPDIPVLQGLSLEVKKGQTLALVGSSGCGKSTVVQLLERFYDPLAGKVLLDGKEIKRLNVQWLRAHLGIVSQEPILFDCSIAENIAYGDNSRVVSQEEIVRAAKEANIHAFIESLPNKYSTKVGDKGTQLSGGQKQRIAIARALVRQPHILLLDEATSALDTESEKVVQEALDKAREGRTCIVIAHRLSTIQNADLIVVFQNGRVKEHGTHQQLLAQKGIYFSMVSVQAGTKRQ

CC(=O)NCCNCCNCCNC(C)=O [DAT, N1,N10-diacetyltriethylenetetramine]
Tmax (clinical [1]): 5 to 6 h | Cmax of DAT relative to MAT [2]: 3-4 fold lower | Inter-individual variability of CLD/F/frM/frD (estimate (% CV in table)): 55.9% and 55.9 (18.1) [1.5] % | Inter-individual variability of VP,D/F/frM/frD (estimate (% CV in table)): 86.8% and 86.8 (29.4) [2.7] % | Apparent volume for DAT, VP,D/F/frM/frD [6]: 197 L and 197 (17.7) L | CL/F (clinical [3]): 5100 mL/min

C[C@H]1O[C@@H](O[C@H]2[C@@H](O)C[C@H](O[C@H]3[C@@H](O)C[C@H](O[C@H]4CC[C@@]5(C)[C@H](CC[C@@H]6[C@@H]5C[C@@H](O)[C@]5(C)[C@@H](C7=CC(=O)OC7)CC[C@]65O)C4)O[C@@H]3C)O[C@@H]2C)C[C@H](O)[C@@H]1O [Digoxin]
Papp B-A of Digoxin in presence of PX811019 (Pgp [4]): 5.68±3.03×10^−6 cm/s | Papp B→A (Pgp [5]): 6.08 ×10⁻⁶ cm/s | efflux ratio (P-gp): 8.06

CC(=O)NCCNCCNCCN [MAT, N1-acetyltriethylenetetramine]
Inter-individual variability of CLM/F/frM (estimate (% CV in table)): 41.5% and 41.5 (15.1) [2.9] % | Inter-individual variability of VP,M/F/frM (estimate (% CV in table)): 55.1% and 55.1 (17.4) [2.7] % | Apparent volume for MAT, VP,M/F/frM [6]: 426 L and 426 (9.8) L | Mean transit time for MAT formation [6]: 0.381 h and 0.381 (34.2) h | CL/F (clinical [3]): 1270 mL/min

NCCNCCNCCN.O=C(O)CCC(=O)O.O=C(O)CCC(=O)O [PX811019, triethylenetetramine disuccinate]
Tmax (clinical [1]): 1.25 to 2 h | Level of cupriuresis versus dose (urinary copper excretion): approximately the same at 435 and 1305 mg PX811019 and increased at the highest dose of 2175 mg

NCCNCCNCCN [TETA, triethylenetetramine]
Increase of model predicted VT,T/F for every 100 mg difference from the 750 mg dose (human, in vivo): 6.37% | Inter-individual variability of SL · ER0 (in vivo): 58.1% and 58.1 (25.1) [7.8] % | Slope (SL) of copper excretion versus TETA concentration (in vivo): 41.8 (mg/L)^−1 | CL/F (clinical [3]): 2350 mL/min

Source: US20220280450A1, “PREVENTION AND TREATMENT OF CORONAVIRUS AND RELATED RESPIRATORY INFECTIONS” (PhilERA New Zealand Ltd., priority 2021, published 2022)
